Laboratory results taken from ChEMBL document CHEMBL6127140, “Bicyclic Ureas as JAK2 Inhibitors for Treating Hematological Cancer” (ACS Med Chem Lett, 2024).

Test: Binding affinity to C-terminal his-Avi-tagged human JAK2 JH-2 domain (536 to 812 residues) W659A/W777A/F794H mutant expressed in baculovirus expression system incubated for 1 hr in presence of JAK2 JH2 tracer and ATP by Lanthascreen assay

| Structure (SMILES) | IC50 |
| --- | --- |
| COC(=O)N[C@@H]1CC[C@@H](n2c(=O)n(C)c3cnc(Nc4cccc(-c5ccc(OC)nc5)n4)cc32)C1 | ≤ 10 nM |
| COC(=O)N[C@@H]1CC[C@@H](n2c(=O)n(C)c3cnc(Nc4cccc(-c5ccc6c(c5)OCCO6)n4)cc32)C1 | ≤ 10 nM |
| COC(=O)N[C@@H]1CC[C@@H](n2c(=O)n(C)c3cnc(Nc4cc(C)nc(N5CCC(F)(F)C5)n4)cc32)C1 | ≤ 10 nM |
| COC(=O)N[C@@H]1CC[C@@H](n2c(=O)n(C)c3cnc(Nc4ccc(F)c(-c5ccc(C6CC6)cc5)n4)cc32)C1 | ≤ 10 nM |
| COC(=O)N[C@@H]1CC[C@@H](n2c(=O)n(C)c3cnc(Nc4cccc(-c5ccc6[nH]nc(C)c6c5)n4)cc32)C1 | ≤ 10 nM |
| COC(=O)N[C@@H]1CC[C@@H](n2c(=O)n(C)c3cnc(Nc4ccnc(N5CCCCC5)n4)cc32)C1 | ≤ 10 nM |
